According to patent US8828906B2, “Active compound combinations having insecticidal and acaricidal properties” (Bayer CropScience AG, priority 2009, dated 2014):

Columns and labels:
Format in all cases: in vivo
Myzus persicae [1] = assay: Myzus persicae test on cabbage; conditions: cabbage leaves sprayed
Procedure: (§1) Solvents: 78 parts by weight of acetone
(§2) • 1.5 parts by weight of dimethylformamide Emulsifier: 0.5 part by weight of alkylaryl polyglycol ether
(§3) To produce a suitable preparation of active compound, 1 part by weight of active compound is mixed with the stated amount of solvent and emulsifier, and the concentrate is diluted with emulsifier-containing water to the desired concentration.
Cabbage leaves (Brassica oleracea) which are heavily infested by the green peach aphid (Myzus persicae) are treated by spraying with the active compound preparation of the desired concentration.
(§4) After the desired period of time, the kill in % is determined. 100% means that all of the aphids have been killed; 0% means that none of the aphids have been killed. The kill rates determined are entered into Colby's formula (see above).

Phaedon cochleariae = Phaedon cochleariae larvae test; conditions: cabbage leaves sprayed
Procedure: as §1, §2, §3
Cabbage leaves (Brassica oleracea) are treated by spraying with the active ingredient formulation of the desired concentration and populated with larvae of the mustard beetle (Phaedon cochleariae) while the leaves are still moist.
After the desired period of time, the kill in % is determined. 100% means that all beetle larvae have been killed; 0% means that none of the beetle larvae have been killed. The kill rates determined are entered into Colby's formula (see above).

Tetranychus urticae = Tetranychus urticae test (OP-resistant/spray treatment); conditions: bean leaf discs sprayed
Procedure: as §1, §2, §3
Discs of bean leaves (Phaseolus vulgaris) which are infested by all stages of the greenhouse red spider mite (Tetranychus urticae) are sprayed with an active compound preparation of the desired concentration.
After the desired period of time, the effect in % is determined. 100% means that all of the spider mites have been killed; 0% means that none of the spider mites have been killed.

Spodoptera frugiperda = Spodoptera frugiperda larvae test; conditions: cabbage leaves sprayed
Procedure: as §1, §2, §3
Cabbage leaves (Brassica oleracea) are treated by being sprayed with the preparation of active compound of the desired concentration and are populated with larvae of the armyworm (Spodoptera frugiperda) while the leaves are still moist.
After the desired period of time, the kill in % is determined. 100% means that all caterpillars have been killed; 0% means that none of the caterpillars have been killed. The kill rates determined are entered into Colby's formula (see above).

Myzus persicae [2] = assay: Myzus persicae test on bell pepper; conditions: 0.8 g/ha, bell-pepper plants sprayed
Procedure: Solvent: 7 parts by weight of dimethylformamide
Emulsifier: 2 parts by weight of alkylaryl polyglycol ether
as §3
Bell-pepper plants (Capsicum annuum) which are heavily infested by the green peach aphid (Myzus persicae) are treated by spraying with the active compound preparation of the desired concentration.
as §4

CC1(C)C(C=C(Cl)Cl)C1C(=O)OC(C#N)c1cccc(Oc2ccccc2)c1 (stereo not drawn) [alpha-cypermethrin]
Kill in % after 1d (Myzus persicae [1]; 0.16 g/ha): 30%

CC1(C)C(C=C(Cl)Cl)C1C(=O)OC(C#N)c1ccc(F)c(Oc2ccccc2)c1 (stereo not drawn) [beta-cyfluthrin]
Kill in % after 1d (Myzus persicae [1]; 0.16 g/ha): 40%
Kill in % after 2d (Phaedon cochleariae; 0.8 g/ha): 50%
Kill in % after 2d (Phaedon cochleariae; 4 g/ha): 83%

Cc1c(COC(=O)C2C(/C=C(\Cl)C(F)(F)F)C2(C)C)cccc1-c1ccccc1 (stereo not drawn) [bifenthrin]
Kill in % after 6d (Myzus persicae [1]; 0.032 g/ha): 0%
Kill in % after 1d (Myzus persicae [1]; 0.16 g/ha): 20%
Kill in % after 2d (Tetranychus urticae; 4 g/ha): 30%
Kill in % after 2d (Phaedon cochleariae; 4 g/ha): 67%

O=C1C=C(N(CCF)Cc2ccc(Cl)nc2)CO1 [compound (I-4), 4-{[(6-chloropyrid-3-yl)methyl](2-fluoroethyl)amino}furan-2(5H)-one]
Kill in % after 1d (Myzus persicae [1]; 4 g/ha): 30%
Kill in % after 2d (Spodoptera frugiperda; 20 g/ha): 0%
Kill in % after 2d (Spodoptera frugiperda; 100 g/ha): 0%
Kill in % after 2d (Tetranychus urticae; 100 g/ha): 0%
Kill in % after 6d (Phaedon cochleariae; 20 g/ha): 0%
Kill in % after 6d (Phaedon cochleariae; 100 g/ha): 0%

O=C1C=C(N(Cc2ccc(Cl)nc2)CC(F)F)CO1 [compound (I-5), 4-{[(6-chloropyrid-3-yl)methyl](2,2-difluoroethyl)amino}furan-2(5H)-one]
Kill in % after 1d (Myzus persicae [1]; 0.8 g/ha): 10%
Kill in % after 6d (Myzus persicae [1]; 0.8 g/ha): 10%
Kill in % after 2d (Spodoptera frugiperda; 20 g/ha): 0%
Kill in % after 2d (Spodoptera frugiperda; 100 g/ha): 0%
Kill in % after 6d (Myzus persicae [2]): 45%
Kill in % after 2d (Phaedon cochleariae; 20 g/ha): 0%

CN(Cc1cnc(Cl)c(F)c1)C1=CC(=O)OC1 [compound (I-6), 4-{[(6-chloro-5-fluorpyrid-3-yl)methyl](methyl)amino}furan-2(5H)-one]
Kill in % after 2d (Spodoptera frugiperda; 20 g/ha): 0%
Kill in % after 2d (Spodoptera frugiperda; 100 g/ha): 0%
Kill in % after 2d (Phaedon cochleariae; 4 g/ha): 0%
Kill in % after 2d (Phaedon cochleariae; 100 g/ha): 0%
Kill in % after 6d (Phaedon cochleariae; 100 g/ha): 0%

CC1(C)C(C=C(Cl)Cl)C1C(=O)OC(C#N)c1cccc(Oc2ccccc2)c1 (stereo not drawn) [cypermethrin]
Kill in % after 1d (Myzus persicae [1]; 0.16 g/ha): 10%
Kill in % after 1d (Myzus persicae [1]; 0.8 g/ha): 20%

CC1(C)[C@H](C(=O)OC(C#N)c2cccc(Oc3ccccc3)c2)[C@@H]1C=C(Br)Br (stereo partly drawn) [deltamethrin]
Kill in % after 6d (Myzus persicae [1]; 0.032 g/ha): 0%
Kill in % after 2d (Spodoptera frugiperda; 0.8 g/ha): 50%

CC1(C)[C@H](C(=O)O[C@@H](C#N)c2cccc(Oc3ccccc3)c2)[C@@H]1/C=C(\Cl)C(F)(F)F [gamma-cyhalothrin]
Kill in % after 1d (Myzus persicae [1]; 0.16 g/ha): 0%
Kill in % after 2d (Spodoptera frugiperda; 4 g/ha): 67%

CC1(C)C(/C=C(\Cl)C(F)(F)F)C1C(=O)OC(C#N)c1cccc(Oc2ccccc2)c1 (stereo not drawn) [lambda-cyhalothrin]
Kill in % after 1d (Myzus persicae [1]; 0.032 g/ha): 0%
Kill in % after 2d (Spodoptera frugiperda; 4 g/ha): 33%
Kill in % after 2d (Tetranychus urticae; 4 g/ha): 0%
Kill in % after 2d (Phaedon cochleariae; 0.16 g/ha): 33%

CC1(C)[C@H](C=C(Cl)Cl)[C@H]1C(=O)OCc1c(F)c(F)cc(F)c1F [transfluthrin]
Kill in % after 6d (Myzus persicae [2]): 0%
